Values quoted from earlier work as cited in US8211015B2 (priority 2006, dated 2012).

Settings: in vivo

SMILES | analgesic effect on labor pain
CCOC(=O)C1(c2ccccc2)CCN(C)CC1 [meperidine] | more sedation than actual analgesia
CN1CC[C@]23c4c5ccc(O)c4O[C@H]2[C@@H](O)C=C[C@H]3[C@H]1C5 [morphine] | more sedation than actual analgesia
